Consider ten compounds from patent US8653304B2, “2,3-dihydro-1H-indene-2-yl urea derivative and pharmaceutical application of same” (Toray Industries, Inc., priority 2009, dated 2014).

The term IC50 denotes the concentration at which inhibition is half-maximal. As a reminder, the AUC(0-inf) is total exposure, with the tail of the curve extrapolated. The term Cmax denotes the peak of the concentration-time curve.

In series [1] the target is human p38 MAPK α (Homo sapiens (Human), UniProt Q16539). Description: Evaluation of p38 MAPK inhibitory activity (Alpha Screen, ATF2 phosphorylation). The format is biochemical. The note with it: p38α/SAPK2a 1.5 nM, ATP 100 μM, biotinylated ATF2 30 nM. How it is done:
Using human p38 MAPK α, the p38 MAPK inhibitory activity of Compound (I) was studied by a method partially modified from the method described in Current Medicinal Chemistry (2004, No. 11, pp. 721-730).
A solution of each test compound solution in 100% DMSO and a p38α/SAPK2a solution (Final Concentration: 1.5 nM) (Invitrogen) were added to a 384-well plate, and then the plate was incubated at room temperature in a dark place for 1 hour. Thereafter, ATP (Final Concentration: 100 μM), which is a phosphate donor, and biotinylated ATF2 (Final Concentration: 30 nM) (upstate), which is a substrate, were added, and the resulting mixture was allowed to react at room temperature in a dark place for 1 hour (the final concentration of DMSO was 0.25%). After the reaction, an anti-phosphorylated ATF2 antibody (Final Concentration: 1 nM) (Cell Signaling), anti-IgG acceptor beads (Final Concentration: 20 μg/mL) (PerkinElmer) and streptavidin donor beads (Final Concentration: 20 μg/mL) (PerkinElmer) were added, and the resultant was incubated at room temperature in a dark place for 1 hour. Using a microplate analyzer (Fusion-α, Packard) in Alpha Screen method (Amplified Luminescent Proximity Homogeneous Assay), the light emission was detected. The IC50 value of each compound was calculated by sigmoidal dose-response regression using Prism 4.02 (GraphPad Software, Inc.).

Series [2] has as its system TNFα production. Description: Cytokine production suppressing activity using human whole blood (LPS stimulation). The note with it: LPS 200 ng/mL, 37° C., 5 hours. The format is cell-based. How it is done:
Using human whole blood, the inhibitory action of Compound (I) on the TNFα production by LPS stimulation was studied by a method partially modified from the method described in Journal of Medicinal Chemistry (2003, Vol. 46, pp. 4676-4686).
A solution of each test compound in 100% DMSO and human blood were mixed in a 96-well flat-bottom plate. Thereafter, LPS (Final Concentration: 200 ng/mL) was added, and the resulting mixture was allowed to react at 37° C. for 5 hours (the final concentration of DMSO was 0.2%). After the reaction, the resultant was centrifuged for 20 minutes at room temperature, and the supernatant was collected. For the measurement of the TNFα amount in the supernatant, a human cytokine kit (CIS bio international) was used. As a comparative control compound, Comparative Compound 2 was used.

Series [3] in a line: Pharmacokinetic evaluation in mouse (oral). Type of series: in vivo. The conditions noted are these: male; BALB/c mouse, oral 0.8 mg/kg, plasma. How it is done: Each test compound was dissolved in 10% HP-β-CD (Nihon Shokuhin Kako Co., Ltd.) to prepare a solution to be administered (0.08 mg/mL, as a solution to be administered for oral administration). To each BALB/c mouse (male, 7-week old, Charles River Laboratories Japan, Inc.), each compound was orally administered at a dose of 0.8 mg/kg. Blood was collected from the jugular vein or heart with time up to 24 hours after the administration. The obtained blood was centrifuged to collect blood plasma. The blood plasma was pretreated by methanol extraction method, and the concentration of the compound was analyzed by LC/MS/MS (ESI positive mode).
In this table, Cmax represents a maximum plasma concentration; and AUC0-∞ represents an area under the curve of the plasma concentration of the compound from after the compound administration to infinite time.

The subject of series [4] is ICR mouse. Nature of the series: Evaluation of hepatotoxicity in mouse (plasma AST). Type of series: in vivo. The note with it: oral 500 mg/kg, plasma on the day after administration. How it is done:
Compound (I) was suspended in 0.5% methylcellulose (Wako Pure Chemical Industries, Ltd.) to prepare a 50 mg/mL solution to be administered. To each ICR mouse (male, 7-week old, Charles River Laboratories Japan, Inc.), each compound was orally administered at a dose of 500 mg/kg. On the day after the administration, blood was collected from the posterior vena cava, and the obtained blood was centrifuged to collect blood plasma. AST (aspartate aminotransferase) value, which is a marker of hepatic disorders in blood plasma, was measured with a biochemistry automatic analyzer (Hitachi 7070, Hitachi, Ltd.). Comparative Compound 4 was suspended in 0.5% sodium carboxymethylcellulose (Wako Pure Chemical Industries, Ltd.) before use.

Chain of human p38 MAPK α (Q16539 whole entry): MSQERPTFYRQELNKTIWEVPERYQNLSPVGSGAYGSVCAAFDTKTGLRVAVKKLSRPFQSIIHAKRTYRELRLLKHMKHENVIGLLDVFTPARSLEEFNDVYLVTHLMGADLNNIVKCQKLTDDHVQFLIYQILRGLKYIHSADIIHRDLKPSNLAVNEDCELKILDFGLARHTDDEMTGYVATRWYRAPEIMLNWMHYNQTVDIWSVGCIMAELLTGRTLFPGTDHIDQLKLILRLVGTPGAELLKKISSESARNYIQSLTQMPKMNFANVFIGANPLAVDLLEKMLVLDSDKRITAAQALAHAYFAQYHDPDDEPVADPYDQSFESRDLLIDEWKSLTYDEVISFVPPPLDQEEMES

As for `COc1cccc2c1C[C@@H](NC(=O)Nc1cc(C(C)(C)C)cc([C@H](O)C(F)(F)F)c1OC)[C@H]2O` (single isomer, unassigned) [Compound 52b], the values for the IC50 in series [1] and in series [2] were 24 nM and 109 nM, respectively.
For `COc1c(NC(=O)N[C@@H]2Cc3c(F)cccc3[C@@H]2O)cc(N2CCOCC2)cc1[C@H](O)C(F)(F)F` (single isomer, unassigned) [Compound 84b], in that order: 16 nM and 115 nM.
As for `COc1c(NC(=O)N[C@H]2Cc3ccc(F)cc3[C@H]2O)cc(C(C)(C)C)cc1[C@@H](O)C(F)(F)F` [Compound 60b, 1-(5-tert-butyl-2-methoxy-3-((R)-2,2,2-trifluoro-1-hydroxyethyl)phenyl)-3-(cis-6-fluoro-1-hydroxy-2,3-dihydro-1H-indene-2-yl)urea], in series [2], the half-inhibitory concentration (IC50) was found to be 182 nM.
On to `C[S+]([O-])c1ccc(-c2nc(-c3ccncc3)c(-c3ccc(F)cc3)[nH]2)cc1` (stereo not drawn) [Comparative Compound 5, 4-(4-(4-fluorophenyl)-2-(4-(methylsulfinyl)phenyl)-1H-imidazol-5-yl)pyridine], for which, in series [3], the AUC(0-inf) is 59.8 ng·h/mL and the peak concentration (Cmax) was 11.4 ng/mL.
For the compound `CCC(C)(C)c1cc(NC(=O)N[C@@H]2Cc3ccccc3[C@@H]2O)c(OC)c([C@H](O)C(F)(F)F)c1` (single isomer, unassigned) [Compound 123b], in series [1], the concentration for half-maximal inhibition (IC50) was 29 nM.
`COc1c(CO)cc(C(C)(C)C)cc1NC(=O)NC1Cc2ccccc2C1` [Comparative Compound 2, 1-(5-tert-butyl-3-(hydroxymethyl)-2-methoxyphenyl)-3-(2,3-dihydro-1H-indene-2-yl)urea] had an IC50 in series [2] of 5190 nM. In series [3], this compound displayed an area under the curve AUC(0-inf) of 116 ng·h/mL and a Cmax of 79.7 ng/mL.
Take `COc1c(NC(=O)N[C@@H]2Cc3ccccc3[C@@H]2O)cc(C(C)(C)C)cc1C(N)C(F)(F)F` (stereo partly drawn) [Compound 47b, 1-(3-(1-amino-2,2,2-trifluoroethyl)-5-tert-butyl-2-methoxyphenyl)-3-((1S,2R)-1-hydroxy-2,3-dihydro-1H-indene-2-yl)urea]: the concentration for half-maximal inhibition (IC50) in series [1] turned out to be 18 nM.
The same measure, in the same setting: with `COc1c(NC(=O)NC2Cc3ccccc3C2)cc(C(C)(C)C)cc1C(O)C(F)(F)F` (stereo not drawn) [Comparative Compound 1, 1-(5-tert-butyl-2-methoxy-3-(2,2,2-trifluoro-1-hydroxyethyl)phenyl)-3-(2,3-dihydro-1H-indene-2-yl)urea, reference compound] the figure was 117 nM.
Compound `COc1c(CO)cc(C(C)(C)C)cc1NC(=O)N[C@@H]1Cc2c(F)cccc2[C@@H]1O` [Compound 3, 1-(5-tert-butyl-3-(hydroxymethyl)-2-methoxyphenyl)-3-((1S,2R)-4-fluoro-1-hydroxy-2,3-dihydro-1H-indene-2-yl)urea] gave a half-inhibitory concentration (IC50) in series [2] of 235 nM. That is a sub-micromolar value.
Turning to `Cc1ccc(-n2nc(C(C)(C)C)cc2NC(=O)Nc2ccc(OCCN3CCOCC3)c3ccccc23)cc1` [Comparative Compound 4, 1-(3-tert-butyl-1-p-tolyl-1H-pyrazol-5-yl)-3-(4-(2-morpholinoethoxy)naphthalen-1-yl)urea, reference compound], the AST value in series [4] is given as 145 U/L.
